Assay results as given in patent US5260335A, “Pharmaceutical preparations for the treatment of inflammatory diseases” (Plantamed Arzneimittel GmbH, priority 1991, dated 1993).

Key:
[1] = system: bronchial obstruction after allergen inhalation; assay: Inhibition of bronchial obstruction after allergen (ovalbumin) inhalation in sensitized guinea pigs; assay type: in vivo; conditions: for activity in preventing bronchial obstruction after inhalation of an allergen (in words): methyl gallate, gallic acid and quercetin compared
Description: Male white guinea pigs were sensitized by means of intraperitoneal and intramuscular injection of ovalbumin according to the well-known methods. […] All the experiments were conducted according to a randomized evaluation record: Groups of 10 to 14 animals were divided into two sub-groups and either treated with the material to be studied or with control solutions. […] Ovalbumin, PAF, histamine and acetylcholine were administered as an aerosol atomized by ultrasound. Spontaneously breathing animals were placed in a dual-chamber body plethysmograph in which the two chambers were separated around the head of the animals by a rubber collar filled with water. Changes in volume in the two chambers were measured by means of pressure transfer systems. The degree of bronchial obstruction was determined by means of the parameter, "compressed air".

[2] = system: PAF-induced bronchial obstruction; assay: Inhibition of PAF-induced bronchial reaction (successive inhalation of histamine, PAF and histamine); assay type: in vivo, guinea pigs
Description: All the experiments were conducted according to a randomized evaluation record:
Groups of 10 to 14 animals were divided into two sub-groups and either treated with the material to be studied or with control solutions.
1 hour, 12 hours, 4 or 7 days after the pretreatment, the animals were exposed to various inhalation stimuli. […] Ovalbumin, PAF, histamine and acetylcholine were administered as an aerosol atomized by ultrasound.
Spontaneously breathing animals were placed in a dual-chamber body plethysmograph in which the two chambers were separated around the head of the animals by a rubber collar filled with water. Changes in volume in the two chambers were measured by means of pressure transfer systems. The degree of bronchial obstruction was determined by means of the parameter, "compressed air".
The action of the plant extracts or of the compounds on the PAF-induced reaction was studied by means of the successive inhalation of histamine, PAF and histamine:
One group of animals was divided into two sub-groups and both sub-groups inhaled histamine in a concentration causing a moderate bronchial obstruction. One hour later, one group was given the substances to be studied, the other group was given the solvent alone. Both groups were subjected 12 hours later to a stimulus by means of the successive inhalation of PAF and histamine with 1 μg PAF at first and, 60 minutes later, the same dose of histamine being given as before.

SMILES | % inhibition of bronchial obstruction after allergen inhalation, 1st stimulus ([1]; 5 mg/kg) [%] | % inhibition of bronchial obstruction after allergen inhalation, 2nd stimulus ([1]; 5 mg/kg) [%] | inhibition of bronchial reactions to an allergen stimulus ([1]; oral dose of 5 mg/kg) [%] | % inhibition of bronchial obstruction after PAF inhalation ([2]; 5 mg/kg) [%] | inhibition of PAF-induced bronchial reaction ([2]; oral dose of 5 mg/kg) | % inhibition of bronchial obstruction after allergen inhalation, 1st stimulus ([1]; 45 mg/kg) [%] | % inhibition of bronchial obstruction after allergen inhalation, 2nd stimulus ([1]; 45 mg/kg) [%] | activity in preventing bronchial obstruction after inhalation of an allergen (in words) [1] | % inhibition of bronchial obstruction after PAF inhalation ([2]; 45 mg/kg) [%] | activity in PAF-induced bronchial obstruction (in words) ([2]; compared with the mixture of quercetin, gallic acid and protocatechinic acid)
O=C(OC1CC(OC(=O)c2cc(O)c(O)c(O)c2)(C(=O)O)CC(OC(=O)c2cc(O)c(O)c(O)c2)C1OC(=O)c1cc(O)c(O)c(O)c1)c1cc(O)c(O)c(O)c1 (single isomer, unassigned) [tetragalloylquinic acid] | 86 ± 24 | 57 ± 79 | 86±24 | 60 ± 43 | about 60% |  |  |  |  | 
O=C(O)c1cc(O)c(O)c(O)c1 [Gallic acid, gallic acid] |  |  |  |  |  | 37 ± 35 | 40 ± 31 | about the same activity |  | 
COC(=O)c1cc(O)c(O)c(O)c1 [Methyl gallate, methyl gallate] |  |  |  |  |  | 43 ± 34 | 41 ± 24 | about the same activity | 65 ± 24 | somewhat more activity than the mixture
O=c1c(O)c(-c2ccc(O)c(O)c2)oc2cc(O)cc(O)c12 [Quercetin, quercetin, reference compound] |  |  |  |  |  | 53 ± 23 | 34 ± 33 | about the same activity |  | 
